{"source": "patent US20120184517A1", "about": "“TREATMENT OF DISEASES WITH ALTERED SMOOTH MUSCLE CONTRACTILITY” (priority 2009, published 2012)", "key": {"[1]": {"target": "PKA (Homo sapiens, UniProt P17612)", "settings": "20 μM; cited from earlier work"}, "[2]": {"test_system": "OVA-challenged animals", "settings": "in vivo; cited from earlier work"}, "[3]": {"target": "PKCδ (Homo sapiens, UniProt Q05655)", "sequence (Q05655 whole entry)": "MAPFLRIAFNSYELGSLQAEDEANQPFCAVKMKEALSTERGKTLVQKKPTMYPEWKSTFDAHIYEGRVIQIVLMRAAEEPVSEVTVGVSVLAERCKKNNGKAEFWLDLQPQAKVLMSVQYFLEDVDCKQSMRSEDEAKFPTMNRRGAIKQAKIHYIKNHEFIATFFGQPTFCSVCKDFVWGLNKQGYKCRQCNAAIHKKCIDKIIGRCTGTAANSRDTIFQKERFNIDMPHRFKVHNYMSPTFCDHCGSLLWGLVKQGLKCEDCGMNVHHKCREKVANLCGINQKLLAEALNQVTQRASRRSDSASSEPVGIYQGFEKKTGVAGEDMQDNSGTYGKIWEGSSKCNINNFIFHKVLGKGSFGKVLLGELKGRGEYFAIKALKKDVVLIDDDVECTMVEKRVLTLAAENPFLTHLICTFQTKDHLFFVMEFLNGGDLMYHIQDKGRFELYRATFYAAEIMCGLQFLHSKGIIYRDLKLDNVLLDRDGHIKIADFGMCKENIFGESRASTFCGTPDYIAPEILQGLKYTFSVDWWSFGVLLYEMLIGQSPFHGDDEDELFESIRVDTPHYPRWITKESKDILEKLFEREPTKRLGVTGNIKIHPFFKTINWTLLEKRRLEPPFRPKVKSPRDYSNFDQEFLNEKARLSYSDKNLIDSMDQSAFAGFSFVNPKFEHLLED", "settings": "rottlerin 20 μM, 0.1 mM ATP, phosphatidylserine; cited from earlier work"}, "[4]": {"test_system": "membrane potential of tracheal smooth muscle cells", "assay": "Membrane potential measurement in tracheal smooth muscle cells", "type": "cell-based, mice", "method": "In this experiment, murine tracheal smooth muscle cells were acutely isolated and whole cell patch clamped as previously described (Zakharov, S. et al., (2005) J Biol Chem 280, 30882-30887).\nThe membrane potential was recorded using perforated patch clamp technique."}, "[5]": {"test_system": "HDM-exposed mice", "assay": "House dust mite (HDM) sensitized asthma model", "method": "House dust mite (HDM) is one of the most common aeroallergens and is implicated in allergy and asthma symptoms in ˜10% of the population (Johnson et al., “Continuous exposure to house dust mite elicits chronic airway inflammation and structural remodeling.” Am J Respir Crit Care Med 169:378-385 (2004)). Exposure to HDM extract elicits a severe and persistent eosinophilic airway inflammation. Mice were exposed to purified HDM extract (Greer Laboratories, Lenoir, N.C.) intranasally (25 μg of protein in 10 μl saline) for 5 days/week for 3 weeks as previously described (Id.). […] Changes in pressure, flow, and volume were recorded, and airway resistance was calculated from peak values after each challenge using a Buxco forced maneuvers system and restrained whole body plethysmography (rWBP; PLY3011 chamber, Buxco (BUXCO Electronics Inc., Troy, N.Y.))."}, "[6]": {"test_system": "OVA-sensitized mice", "assay": "OVA induced acute asthma model, repeated i.p. rottlerin", "method": "In this example, the acute asthma model in ovalbumin (OVA) treated mice was used (Jia, Y., R. Foronjy, and J. D'Armiento, Altered airway inflammatory response to cigarette smoke in ovalbumin-sensitized mice. Am J. Resp and Critical Care Medicine (2006) p. Suppl:A339.). […] Mice received an intraperitoneal injection (i.p) of 100 μg ovalbumin adsorbed to 2 mg aluminum (200 μl final volume) on day 0 and again on day 7. Control mice were injected with endotoxin free PBS. On alternative days 14-22, mice received a 20 minute aerosol challenge of either endotoxin-free PBS (controls) or 2% (w/v) OVA in endotoxin-PBS, using a lumiscope 6610 ultrasonic nebulizer (Lumiscope, East Rutherford, N.J.).\nTwo days after the last aerosol challenge, AHR was measured by invasive restrained whole body plethysmography (rWBP) (BUXCO Electronics Inc., Troy, N.Y.) in response to inhaled methacholine (Sigma, St. Louis, Mo.). For dynamic lung resistance, measurements were performed using the PLY3011 chamber (BUXCO). Mice were anesthetized with a cocktail of 25 mg per kg body weight ketamine hydrochloride (Bioniche Pharma, Lake Forest, Ill.) and 2.5 mg per kg body weight xylazine (Llyod Laboratories, Inc., Barangay Tikay, Malolos Bulacan, Philippines), tracheotomized, and immediately intubated with an 18-gauge catheter, followed by mechanical ventilation (Columbus Instruments International, Columbus, Ohio). Respiratory frequency was set at 150 breaths/minute with a tidal volume of 0.2 ml. Increasing concentrations of methacholine (0-50 mg/ml) were administered at the rate of 20 puffs per 10 seconds, with each puff of aerosol delivery lasting 10 ms, via a nebulizer aerosol system with a 4-6 μm aerosol particle size generated by a nebulizer head (Aeroneb®, Aerogen Ltd., Dangan, Galway, Ireland). The nebulizer is attached to a small aerosol block, which is placed in the inspiratory flow line. In this way the aerosol is injected directly into the airway. Baseline resistance was restored before administration of the subsequent doses of methacholine. The flow and pressure signals were measured and processed together to determine resistance and compliance using a software analyzer provided in BioSystem XA software (BUXCO Electronics Inc., Troy, N.Y.).\nAfter measurement of airway responsiveness in vivo, mice were sacrificed and their serum collected and stored at −80° C. until analysis. Serum levels of OVA-specific IgE were measured by sandwich ELISA as described previously (Kanamaru, F., et al. “Costimulation via Glucocorticoid-Induced TNF Receptor in Both Conventional and CD25^+ Regulatory CD4^+ T Cells.” J Immunol., Vol. 172, pages 7306-7314 (2004)).\nBronchoalveolar lavage (BAL) was performed by injection of 1 ml saline (37° C.) through a tracheal cannula into the lung. Cells in the BAL were centrifuged and resuspended in cold PBS. For differential BAL cell counts, cytospin preparations were made and per cytospin, 200 cells were counted and differentiated by standard morphology and staining characteristics.\nIL-4, IL-5 and IL-13 ELISAs were performed according to the manufacturer's instructions (R & D systems, Minneapolis, Minn.). The detection limits of the ELISAs were 60 pg/ml for IL-4, 32 pg/ml for IL-5, 15 pg/ml IL-13.\nIn this system mice are anesthetized and ventilated and through a cannula in the trachea, tracheal pressure and flow are continuously monitored and traditional pulmonary mechanics can be measured. This system is preferable over the method of oscillatory mechanics due to the consistency of measurements and the ability to directly measure pressure and flow. Changes in pressure, flow, and volume were recorded, and RL was calculated from peak values after each challenge (FIG. 14A).\nAfter determining the airway hyperresponsiveness, lungs were lavaged with PBS and total cell count with differential was determined on the bronchoalveolar cells (BAL)."}, "[7]": {"test_system": "canine subarachnoid hemorrhage model", "settings": "5 μM injected into the cistera magna; cited from earlier work"}}, "data": [{"smiles": "CC(=O)c1c(O)c(C)c(O)c(Cc2c(O)c3c(c(C(=O)/C=C/c4ccccc4)c2O)OC(C)(C)C=C3)c1O", "note": "[rottlerin, 5,7-dihydroxy-2,2-dimethyl-6-(2,4,6-trihydroxy-3-methyl-5-acetylbenzyl)-8-cinnamoyl-I,2-chromene]", "values": [{"measurement": "inhibition", "setting": "[1]", "value": 83, "unit": "%"}, {"measurement": "histamine in BAL fluid", "setting": "[2]", "value": "inhibits an increase of histamine"}, {"measurement": "effect on PKCδ activity", "setting": "[3]", "value": "virtually no effect"}, {"measurement": "membrane potential", "setting": "[4]; after rottlerin application (1 μM), FIGS. 11B and 11D", "value": "significant hyperpolarization"}, {"measurement": "membrane potential", "setting": "[4]; perforated patch clamp, rottlerin 2 μM, FIG. 15", "value": "significant hyperpolarization"}, {"measurement": "adverse effect, mortality, morbidity", "setting": "[5]; 5 μg/g intraperitoneal every other day", "value": "no significant adverse effect"}, {"measurement": "cellular infiltrate in the peribronchial and perivascular regions", "setting": "[5]; HDM-exposed animals", "value": "significant reduction"}, {"measurement": "airway resistance", "setting": "[5]; HDM-sensitized mice, methacholine 25-50 mg/ml", "value": "marked decrease in their airway resistance"}, {"measurement": "airway resistance", "setting": "[5]; PBS-sensitized animals", "value": "no effect"}, {"measurement": "serum OVA specific IgE", "setting": "[6]; OVA+rottlerin versus OVA, 48 hours after last challenge", "value": "similar"}, {"measurement": "Th2 cytokines IL-4, IL-5 and IL-13 in BALF", "setting": "[6]; OVA-sensitized animals", "value": "significantly reduced"}, {"measurement": "number of inflammatory leukocytes in BAL", "setting": "[6]; OVA-sensitized mice", "value": "significant decrease"}, {"measurement": "number of macrophages and eosinophils in BAL", "setting": "[6]; OVA-sensitized mice", "value": "marked reduction"}, {"measurement": "airway constriction", "setting": "[6]; OVA-sensitized mice, 25 mg/ml methacholine challenge, rottlerin 5 mg per kg i.p.", "value": "decrease in airway constriction"}, {"measurement": "airway resistance (RL)", "setting": "[6]; OVA-sensitized mice, MCh 25-50 mg/ml, rottlerin 5 mg per kg i.p.", "value": "decrease in their airway resistance"}, {"measurement": "airway constriction with isoproterenol", "setting": "[6]; OVA-sensitized mice, isoproterenol i.p. 20, 40 and 100 μg after 50 mg/ml methacholine", "value": "significant decrease in airway constriction"}, {"measurement": "cellular infiltrate in the peribronchial and perivascular regions", "setting": "[6]; OVA-sensitized/challenged animals, H & E stain", "value": "significant reduction"}, {"measurement": "airway resistance", "setting": "[6]; PBS-sensitized animals", "value": "no effect"}, {"measurement": "adverse effect, morbidity, mortality", "setting": "[6]; rottlerin 5 mg per kg i.p., repeated", "value": "no significant adverse effect"}, {"measurement": "cerebral vasospasm", "setting": "[7]", "value": "inhibited the initial phase of cerebral vasospasm"}]}]}
